Results from ChEMBL document CHEMBL4765225, “A peptide inhibitor of antibody-dependent cell-mediated cytotoxicity against EGFR/folate receptor-alpha double positive cells” (Medchemcomm, 2018).
Activity calls are given as the source filed them. The calls are words filed in the database; no cut-off is given here.

Legend:
[1] = tested on: IGROV-1; assay: Induction of CD20 antibody accumulation on human IGROV1 cell surface assessed as ternary complex formation by fluorescence microscopy; assay type: functional
[2] = tested on: A549; assay: Induction of EGFR antibody accumulation on human A549 cell surface assessed as ternary complex formation by fluorescence microscopy; assay type: functional, tissue-based
[3] = tested on: IGROV-1; assay: Induction of CD20 antibody recruitment on human IGROV1 cell surface assessed as ternary complex formation by fluorescence microscopy; assay type: functional
[4] = tested on: IGROV-1; assay: Induction of EGFR antibody accumulation on human IGROV1 cell surface assessed as ternary complex formation by fluorescence microscopy; assay type: functional
[5] = Inhibition of antibody-dependent cell-mediated cytotoxicity in human IGROV1 cells incubated for 10 mins followed by addition of KHYG-1/FC-gamma-3A-158V by LDH assay; assay type: functional, cell-based; settings: IGROV-1, 10 min
[6] = tested on: IGROV-1; assay: Induction of CD20 antibody recruitment on human IGROV1 cell surface by flow cytometry analysis; assay type: functional, tissue-based
[7] = tested on: IGROV-1; assay: Induction of EGFR antibody accumulation on human IGROV1 cell surface assessed as ternary complex formation in presence of excess folate by fluorescence microscopy; assay type: functional, tissue-based
[8] = tested on: IGROV-1; assay: Induction of CD20 antibody accumulation on human IGROV1 cell surface assessed as ternary complex formation in presence of excess folate by fluorescence microscopy; assay type: functional, tissue-based

SMILES	Activity [1]	Activity [2]	Activity [3]	Activity [4]	IC50 [5]	Activity [6]	Activity [7]	Activity [8]
CC(C)C[C@@H]1NC(=O)[C@H](Cc2c[nH]cn2)NC(=O)[C@H](Cc2c[nH]c3ccccc23)NC(=O)[C@H](C)NC(=O)[C@@H](NC(=O)[C@H](CC(=O)O)NC(=O)CCOCCOCCOCCOCCOCCOCCNC(=O)C(CCCCNC(=O)c2ccc(-c3c4ccc(=[N+](C)C)cc-4oc4cc(N(C)C)ccc34)c(C(=O)[O-])c2)NC(=O)CCC(NC(=O)c2ccc(NCc3cnc4[nH]c(N)nc(=O)c4n3)cc2)C(=O)O)CSSC[C@@H](C(=O)N[C@H](C(N)=O)[C@@H](C)O)NC(=O)[C@H](Cc2c[nH]c3ccccc23)NC(=O)[C@H](C(C)C)NC(=O)[C@H](CC(C)C)NC(=O)[C@H](CCC(=O)O)NC(=O)CNC1=O (some centres undefined)	Active	inactive	Active					
CC(C)C[C@@H]1NC(=O)[C@H](Cc2c[nH]cn2)NC(=O)[C@H](Cc2c[nH]c3ccccc23)NC(=O)[C@H](C)NC(=O)[C@@H](NC(=O)[C@H](CC(=O)O)NC(=O)CCOCCOCCOCCOCCOCCOCCNC(=O)CCC(NC(=O)c2ccc(NCc3cnc4[nH]c(N)nc(=O)c4n3)cc2)C(=O)O)CSSC[C@@H](C(=O)N[C@H](C(N)=O)[C@@H](C)O)NC(=O)[C@H](Cc2c[nH]c3ccccc23)NC(=O)[C@H](C(C)C)NC(=O)[C@H](CC(C)C)NC(=O)[C@H](CCC(=O)O)NC(=O)CNC1=O (some centres undefined)		inactive		Active	400 pM	Active	inactive	inactive
